Measured values taken from US9492405B2, “Use of fenoterol and fenoterol analogues in the treatment of glioblastomas and astrocytomas” (The United States of America, as represented by the …, priority 2010, dated 2016).
“And” between values parts separate entries of the source, which are not always exact repeats. Equal entries are not always repeated.

What was measured:
1321N1 xenograft = 1321N1 xenograft implanted in the flank of SKID mice; type: in vivo; details: IP twice a day; day 3-10 30 mg/kg/day, day 10-42 50 mg/kg/day
in vivo = details: rat, IV 5 mg/kg
Experimental: Dose calculations (mg/kg) were based on the individual body weight measured on the day of treatment. Study duration for pharmacokinetic studies was 6 hours. […] Urine was collected for 0-6 hours and 6 to 24 hours from 3 rats in each treatment group.
In the two-compartment model, the drug distributes into two compartments, the central compartment and the tissue, or peripheral compartment. The central compartment represents the blood, extracellular fluid, and highly perfused tissues. The drug distributes rapidly and uniformly in the central compartment. A second compartment, known as the tissue or peripheral compartment, contains tissues in which the drug equilibrates more slowly. Drug transfer between the two compartments is assumed to take place by first-order processes.
The following abbreviations are utilized in Table 4 below: alpha—macro rate constant associated with the distribution phase; beta—macro rate constant associated with the elimination phase; A, B—zero time intercept associated with the alpha phase and beta phase, respectively; AUC—area under the curve; T1/2 (K10)—half-life associated with the rate constant K10; K10—elimination rate—rate at which the drug leaves the system from the central compartment; K12—rate at which drug enters tissue compartment from the central compartment; K21—rate at which drug enters central compartment from tissue compartment; V1—volume of distribution of the central compartment; V2—volume of distribution of the tissue compartment; Vss—volume of distribution at steady state; and Cl—clearance.

[1] = Brain-to-plasma distribution of [3H]-(R,R)-methoxyfenoterol after single IV dose; type: in vivo; details: rat, IV
Experimental: An overview of the research study design for evaluating the brain-to-plasma distribution of [^3H]
(specific activity 57 Ci/mmol); vehicle was sterile saline, 0.9% sodium chloride, USP. Dose formulations were prepared on the day of the study. The amount of radioactivity in the dose formulation was determined by liquid scintillation. The study lasted for an hour and radioactivity levels in plasma and brain tissue were evaluated at the conclusion of the study. Approximately 5 mls of whole blood was collected. Blood samples were collected via cardiac puncture, transferred into a tube containing K3EDTA as the anticoagulant and kept on wet ice until processed to plasma. To generate plasma, samples were centrifuged within 15 minutes of collection at 2,500 RPM for 15 minutes at room temperature. Plasma was divided equally into three labeled cryovials and stored on ample dry ice until transferred to a freezer set at ≦−20° C. for storage until analysis. Duplicate aliquots were weighed and then combined with scintillation cocktail. The [^3H] radioactivity was determined on a liquid scintillation counter. Brain samples were snap frozen in liquid nitrogen and stored at ≦−70° C. until analysis. Whole brain tissue was homogenized and the weight of the homogenate was determined. Duplicate aliquots from the homogenate were weighed, solubilized and then combined with scintillation cocktail. The [^3H] radioactivity was determined on a liquid scintillation counter.

1321N1 cells = assay: Cell cycle distribution by flow cytometry in 1321N1 cells; details: 1321N1 cells
β2-AR = β2-AR (Homo sapiens (Human), UniProt P07550); details: 1321N1; basal below 0.5 nmol/mg protein
Chain of β2-AR (P07550 whole entry): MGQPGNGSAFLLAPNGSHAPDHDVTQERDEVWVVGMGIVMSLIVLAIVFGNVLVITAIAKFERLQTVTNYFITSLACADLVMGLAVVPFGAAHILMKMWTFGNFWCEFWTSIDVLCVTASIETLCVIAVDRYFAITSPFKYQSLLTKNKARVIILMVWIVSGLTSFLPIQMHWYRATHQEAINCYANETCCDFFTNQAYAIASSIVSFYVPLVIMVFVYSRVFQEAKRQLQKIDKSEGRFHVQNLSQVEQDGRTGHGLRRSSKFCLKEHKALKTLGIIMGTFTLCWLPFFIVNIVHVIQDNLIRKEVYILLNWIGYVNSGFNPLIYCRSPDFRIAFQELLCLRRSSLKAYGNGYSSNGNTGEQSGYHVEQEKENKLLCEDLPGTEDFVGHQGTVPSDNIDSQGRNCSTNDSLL

With `COc1ccc(C[C@@H](C)NC[C@H](O)c2cc(O)cc(O)c2)cc1.O=C(O)/C=C/C(=O)O` [(R,R)-2, (R,R)-(−)-1-p-Methoxyphenyl-2-(β-3′,5′-dihydroxy-phenyl-β-oxy)ethylaminopropane Fumarate] the “growth of 1321N1 xenograft” value (1321N1 xenograft) was “inhibits astrocytoma growth in vivo”, the AUC (in vivo) was 96.1011 µg·min/mL and the Cl (in vivo) was 15.40 mL/min. For the same compound, the K12 (in vivo) was 0.1309 min⁻¹, the K21 (in vivo) was 0.0203 min⁻¹ and the “T1/2 (K10)” value (in vivo) was 13.23 min. The Vss (in vivo) was 2189.02 mL, the “Plasma concentration, Average” value (in vivo; 5 min) was 2.12 µg/mL and the “Plasma concentration, Average” value (in vivo; 15 min) was 0.58 µg/mL. The “Plasma concentration, Average” value (in vivo; 30 min) was 0.41 µg/mL, the “Plasma concentration, Average” value (in vivo; 60 min) was 0.26 µg/mL and the “Plasma concentration, Average” value (in vivo; 120 min) was 0.17 µg/mL. For the same compound, the “Plasma concentration, Average” value (in vivo; 240 min) was 0.12 µg/mL, the “Plasma concentration, Average” value (in vivo; 300 min) was 0.07 µg/mL and the Individual plasma concentration (in vivo; 300 min, individual rats, listed as (R,R)-methoxyfenoterol) was 0.06 ug/ml and 0.07 ug/ml (3×) and 0.09 ug/ml. For the same compound, the “Plasma concentration, Average” value (in vivo; 360 min) was 0.06 µg/mL, the V1 (in vivo; central compartment) was 294.01 mL and the K10 (in vivo; elimination rate) was 0.0524 min⁻¹. It also gave a V2 (in vivo; tissue compartment) of 1895.00 mL, an Alpha (in vivo; two-compartment open model) of 0.1982 min⁻¹ and a Beta (in vivo; two-compartment open model) of 0.0054 min⁻¹. The A (in vivo; two-compartment open model, zero time intercept alpha phase) was 4.6437 µg/mL, the B (in vivo; zero time intercept beta phase) was 0.3900 µg/mL and the “passage through the blood brain barrier” value [1] was “capable of passing through the blood brain barrier”.
For `C=C[C@@]1(C)CC(=O)[C@]2(O)[C@@]3(C)[C@@H](O)CCC(C)(C)[C@@H]3[C@H](O)[C@H](OC(C)=O)[C@@]2(C)O1` [forskolin, reference compound], the cell cycle arrest (1321N1 cells) was “induced cell cycle arrest in G1 phase” and the “intracellular concentration of cAMP after treatment” value (β2-AR) was ~4 nmol/mg protein.
